These results are taken from patent US11945768B1, “8-(3-flurobenzylideneamino)naphthalene-1,3-disulfonic acid as an antioxidant compound” (KING FAISAL UNIVERSITY, priority 2023, dated 2024).

A short description of the assay: DPPH radical scavenging antioxidant test (in vitro). The format is biochemical. The following applies: 517 nm; for Inhibition (radical scavenging inhibition): 0.2 mL DPPH (0.75 mM), compound 3 μM in ethanol, 30 minutes incubation in the dark. On the procedure: The antioxidant properties of the 8-(3-flurobenzylideneamino)naphthalene-1,3-disulfonic acid compound were studied by adding 0.2 mL DPPH (0.75 mM)) 8-(3-flurobenzylideneamino)naphthalene-1,3-disulfonic acid (III) (3 μM) in ethanol. After 30 minutes of incubation in the dark, the absorbance was read against a blank at 517 nm. Ascorbic acid (vitamin C) was used as standard antioxidants (positive control). A blank sample was prepared by 0.2 ml of DPPH in 3 mL ethanol. A negative control sample was run using ethanol instead of the sample. The radical scavenging inhibition was calculated using the following equation: […]
The antioxidant activity for the synthesized compound is listed in Table 1, using Vitamin C as a reference.
On the technique in general: Loss of DPPH colour is used to gauge radical scavenging.

Turning to `O=S(=O)(O)c1cc(S(=O)(=O)O)c2c(/N=C/c3cccc(F)c3)cccc2c1` [Product III, 8-(3-flurobenzylideneamino)naphthalene-1,3-disulfonic acid], the “Inhibition (radical scavenging inhibition)” value is given as 52%. The “antioxidant potential in DPPH test compared to vitamin C (in words)” value (DPPH in vitro test, vitamin C as positive control) is “high potential as an antioxidant compared to vitamin C”. On to `O=C1O[C@H]([C@@H](O)CO)C(O)=C1O` [vit c, Ascorbic acid, reference compound], for which the “Inhibition (radical scavenging inhibition)” value is listed as 74%.
